Data reported in patent publication US20200270588A1, “GLUCOSYL TRANSFERASE POLYPEPTIDES AND METHODS OF USE” (Syngenta Participations AG, priority 2017, published 2020).

Legend:
Assay in all cases: UDP-Glo glucosyl transferase assay, purified enzyme
Assay type in all cases: biochemical
[1] = target: T1, SEQ ID NO 17, zmBX9 S117V, M279F, A334K mutant (Zea mays, UniProt B4G072, A334K/M279F/S117V); settings: herbicide mM: V 0.300, VI 0.250, VII 0.210; IV, VIII, XI, XXI, XX, XVIII, XVI, XV, XIV 0.200; others 1.000
T1 construct: polypeptides were the C-terminally his-tagged; His tag (C); made in house
T1 sequence (B4G072 whole entry S117V/M279F/A334K): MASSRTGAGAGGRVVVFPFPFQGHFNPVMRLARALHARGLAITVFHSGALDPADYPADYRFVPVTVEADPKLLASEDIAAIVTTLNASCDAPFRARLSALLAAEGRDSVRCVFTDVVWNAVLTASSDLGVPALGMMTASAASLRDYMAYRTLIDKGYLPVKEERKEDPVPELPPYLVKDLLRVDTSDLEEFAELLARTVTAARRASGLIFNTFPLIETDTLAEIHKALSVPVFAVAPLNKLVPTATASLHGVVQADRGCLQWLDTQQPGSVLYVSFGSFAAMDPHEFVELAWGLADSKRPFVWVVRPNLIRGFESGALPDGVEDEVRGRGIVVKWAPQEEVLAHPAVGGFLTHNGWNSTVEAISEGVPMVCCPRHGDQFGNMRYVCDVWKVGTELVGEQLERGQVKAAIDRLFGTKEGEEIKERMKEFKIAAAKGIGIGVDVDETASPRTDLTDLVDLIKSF

[2] = target: T2, SEQ ID NO 22, mutant of Zea mays bx9 glucosyl transferase (Zea mays, UniProt B4G072, A334K/F21Y/M279F/S117V/T220P); settings: lower block, concentration printed only in upper block: V 0.300, VII 0.210; IV, VIII, XI, XXI, XX, XVIII, XVI, XV, XIV 0.200; others 1.000 mM
T2 construct: His tag (C); made in house
T2 sequence (B4G072 whole entry F21Y/S117V/T220P/M279F/A334K): as the sequence (B4G072 whole entry S117V/M279F/A334K) above, with F21Y, T220P counted along it

[3] = target: T3, SEQ ID NO 21, mutant of Zea mays bx9 glucosyl transferase (Zea mays, UniProt B4G072, A334K/F21Y/L194V/M279F/S117V); settings: lower block, concentration printed only in upper block: V 0.300, VII 0.210; IV, VIII, XI, XXI, XX, XVIII, XVI, XV, XIV 0.200; others 1.000 mM
T3 construct: His tag (C); made in house
T3 sequence (B4G072 whole entry F21Y/S117V/L194V/M279F/A334K): as the sequence (B4G072 whole entry S117V/M279F/A334K) above, with F21Y, L194V counted along it

| Compound | Activity [1] [pmol/sec/pmol enzyme] | Activity [2] [pmol/sec/pmol enzyme] | Activity [3] [pmol/sec/pmol enzyme] |
| --- | --- | --- | --- |
| CON1C(=O)N(c2cc(C(F)(F)F)ccn2)C(O)[C@@H]1C (stereo partly shown) [Compound VI] | 1.003 |  |  |
| Cc1cnc(N2C(=O)N(C)CC2O)cc1C(F)(F)F (stereo not shown) [XVIII] | 0.231 | 0.933 | 0.425 |
| CN1CC(O)N(c2cc(C(F)(F)F)c(Cl)cn2)C1=O (stereo not shown) [XI] | 0.120 | 0.548 | 0.374 |
| CN1CC(O)N(c2cc(C(F)(F)F)ccn2)C1=O (stereo not shown) [Compound V] | 0.565 | 1.221 | 1.548 |
